Test results taken from patent US10363251B2, “(+)-morphinans as antagonists of toll-like receptor 9 and therapeutic uses thereof” (Mallinckrodt LLC, priority 2009, dated 2019).

Biological target: T1, TLR9 (Homo sapiens, UniProt Q9NR96)
T1 construct: expressed in transfected cells; host or cells: HEK293
T1 sequence (Q9NR96 26-1032): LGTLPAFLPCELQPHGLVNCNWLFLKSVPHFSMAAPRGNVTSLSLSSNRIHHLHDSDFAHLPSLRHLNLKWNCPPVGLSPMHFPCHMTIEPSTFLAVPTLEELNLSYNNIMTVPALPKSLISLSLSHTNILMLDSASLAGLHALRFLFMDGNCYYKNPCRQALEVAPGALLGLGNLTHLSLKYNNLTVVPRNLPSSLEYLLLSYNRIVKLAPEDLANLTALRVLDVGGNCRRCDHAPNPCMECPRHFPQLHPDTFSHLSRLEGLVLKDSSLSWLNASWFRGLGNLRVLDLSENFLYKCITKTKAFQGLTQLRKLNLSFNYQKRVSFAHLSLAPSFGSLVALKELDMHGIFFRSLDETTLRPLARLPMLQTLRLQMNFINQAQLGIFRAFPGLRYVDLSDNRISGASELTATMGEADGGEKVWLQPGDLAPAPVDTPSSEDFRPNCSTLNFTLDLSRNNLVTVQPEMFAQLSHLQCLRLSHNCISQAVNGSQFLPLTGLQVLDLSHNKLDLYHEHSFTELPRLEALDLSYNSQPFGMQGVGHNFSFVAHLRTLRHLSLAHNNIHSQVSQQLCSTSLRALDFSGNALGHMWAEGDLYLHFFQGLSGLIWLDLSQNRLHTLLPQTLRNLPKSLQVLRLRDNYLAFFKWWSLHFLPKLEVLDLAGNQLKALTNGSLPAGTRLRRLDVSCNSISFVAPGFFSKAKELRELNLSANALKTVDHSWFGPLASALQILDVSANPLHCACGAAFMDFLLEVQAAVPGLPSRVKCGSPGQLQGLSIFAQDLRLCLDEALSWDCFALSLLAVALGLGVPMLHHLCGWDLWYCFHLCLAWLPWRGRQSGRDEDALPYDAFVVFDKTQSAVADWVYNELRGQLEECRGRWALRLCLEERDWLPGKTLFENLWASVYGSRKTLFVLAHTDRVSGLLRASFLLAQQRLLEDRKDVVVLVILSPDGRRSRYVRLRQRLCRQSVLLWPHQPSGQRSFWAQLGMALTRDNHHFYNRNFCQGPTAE
Test: TLR9 screening of (+)-morphinan library, SEAP reporter in HEK293 cells expressing TLR9
Format: cell-based
Conditions: activator ODN2006; for OD 650 nm (mean ± sd): control (no activator) 0.14, activator 1.42 OD; for inhibition at 0.1 µM: HEK293, read-out: % Inhibition (mean), 100 nM; for inhibition at 10 µM: HEK293, read-out: % Inhibition (mean), 10 μM
Procedure: The secreted alkaline phosphatase reporter is under the control of a promoter inducible by the transcription factor NF-κB. A library of more than 100 (+)-morphinan compounds was screened for TLR9 antagonist activity by assessing NF-κB activation in the HEK293 cells expressing TLR9. This reporter gene allows the monitoring of signaling through the TLR, based on the activation of NF-κB.
In a 96-well plate (200 μL total volume) containing 50,000 cells/well, 20 μL of each sample compound was added to wells, in triplicate, followed by a 30 minute incubation at 37° C. and 5% CO2. After the 30 minutes of incubation, 20 μL of the activator ODN2006 was added to each well. The media added to the wells was designed for the detection of NF-κB induced SEAP expression. After a 16-20 hr incubation period, the OD at 650 nm was read on a Beckman Coulter AD 340C Absorbance Detector. All compounds were tested at concentrations of 10 μM and 100 nM.

| Compound | OD 650 nm (mean ± sd) (100 nM) [OD] | OD 650 nm (mean ± sd) (10 μM) [OD] | inhibition at 0.1 µM [%] | inhibition at 10 µM [%] | % Inhibition (mean) (100 nM, 0.1 µM) [%] |
| --- | --- | --- | --- | --- | --- |
| COC1=CC=C2[C@@H]3Cc4ccc(OC)c5c4[C@]2(CCN3C)[C@@H]1O5 [II-34] | 1.39 ± 0.05 | 0.94 ± 0.08 | 2 | 34 |  |
| C=CCN1CC[C@]23C4=CC=C(OC)[C@H]2Oc2c(OC)ccc(c23)C[C@@H]41 [II-35] | 1.04 ± 0.08 | 0.34 ± 0.03 | 27 | 76 |  |
| COC1=CC=C2[C@@H]3Cc4ccc(OC)c5c4[C@]2(CCN3CC2CC2)[C@@H]1O5 [II-36] | 1.14 ± 0.02 | 0.14 ± 0.01 | 20 | 90 |  |
| COC1=CC=C2[C@@H]3Cc4ccc(OC)c5c4[C@]2(CCN3CC2CCC2)[C@@H]1O5 [II-37] | 1.13 ± 0.07 | 0.18 ± 0.06 | 20 | 87 |  |
| COc1ccc2c3c1O[C@@H]1C(=O)CC[C@]4(O)[C@H](C2)N(C)CC[C@@]314 [II-39] | 1.23 ± 0.03 | 1.06 ± 0.06 | 14 | 25 |  |
| COc1ccc2c3c1O[C@@H]1C(O)CC[C@]4(O)[C@H](C2)N(C)CC[C@@]314 (stereo partly shown) [II-40] | 1.41 ± 0.13 | 1.37 ± 0.07 | 0 | 4 |  |
| C=C1CC[C@]2(O)[C@@H]3Cc4ccc(OC)c5c4[C@]2(CCN3C)[C@@H]1O5 [II-41] | 1.27 ± 0.03 | 1.02 ± 0.09 | 11 | 28 |  |
| COc1ccc2c3c1O[C@@H]1C(NC(C)=O)CC[C@]4(O)[C@H](C2)N(C)CC[C@@]314 (stereo partly shown) [II-42] | 1.00 ± 0.03 | 0.14 ± 0.02 | 29 | 90 |  |
| COc1ccc2c3c1O[C@@H]1C(N)CC[C@]4(O)[C@H](C2)N(C)CC[C@@]314 (stereo partly shown) [II-43] | 0.10 ± 0.01 | 0.09 ± 0.00 | 93 | 94 |  |
| COc1ccc2c3c1O[C@@H]1CCC[C@]4(O)[C@H](C2)N(C)CC[C@@]314 [II-44] | 1.18 ± 0.02 | 1.03 ± 0.12 | 17 | 27 |  |
| COc1ccc2c3c1O[C@@H]1[C@@H]4CCC5(O4)[C@H](C2)N(C)CC[C@@]315 [II-46] | 1.24 ± 0.02 | 1.30 ± 0.02 | 13 | 8 |  |
| C=CCN1CC[C@@]23c4c5ccc(OC)c4O[C@@H]2C(=O)CC[C@]3(O)[C@@H]1C5 [II-47] | 1.18 ± 0.13 | 0.78 ± 0.07 | 17 | 45 |  |
| C=CCN1CC[C@@]23c4c5ccc(OC)c4O[C@@H]2C(=C)CC[C@]3(O)[C@@H]1C5 [II-51] | 1.20 ± 0.04 | 0.84 ± 0.05 | 16 | 41 |  |
| COc1ccc2c3c1O[C@@H]1C(O)CC[C@]4(O)[C@H](C2)N(CC2CCC2)CC[C@@]314 (stereo partly shown) [II-55] | 1.46 ± 0.08 | 1.17 ± 0.08 | -3 | 18 |  |
| COc1ccc2c3c1O[C@@H]1C(=O)CC[C@@H]4[C@H](C2)N(C(=O)C2CC2)CC[C@@]314 [II-57] | 0.84 ± 0.02 | 1.15 ± 0.03 |  | 19 | 41 |
| COc1ccc2c3c1O[C@@H]1C(=O)CC[C@]4(O)[C@H](C2)N(C(=O)C2CCC2)CC[C@@]314 [II-59] | 1.19 ± 0.07 | 1.41 ± 0.13 | 17 | 1 |  |
| COc1ccc2c3c1O[C@@H]1C(=O)CC[C@]4(O)[C@H](C2)N(C(=O)c2ccccc2)CC[C@@]314 [II-60] | 1.24 ± 0.04 | 0.17 ± 0.03 | 13 | 88 |  |
| O=C1CC[C@@H]2[C@@H]3Cc4ccc(O)c5c4[C@]2(CCN3)[C@@H]1O5 [II-61] | 1.23 ± 0.02 | 1.22 ± 0.07 | 13 | 14 |  |
| CN(C(=O)/C=C/c1ccoc1)[C@H]1CC[C@]2(O)[C@@H]3Cc4ccc(O)c5c4[C@]2(CC[N+]3([O-])CC2CC2)[C@@H]1O5 (stereo partly shown) [II-63] | 0.23 ± 0.07 | 0.13 ± 0.01 | 84 | 91 |  |
| C=CCN1CC[C@@]23c4c5ccc(O)c4O[C@@H]2C(=O)CC[C@]3(O)[C@@H]1C5 [II-64] | 1.31 ± 0.14 | 0.98 ± 0.01 | 8 | 31 |  |
| C=CCN1CC[C@@]23c4c5ccc(O)c4O[C@@H]2C(=O)CC[C@]3(OC)[C@@H]1C5 [II-70] | 1.12 ± 0.04 | 0.79 ± 0.03 | 21 | 45 |  |
| NC1CC[C@]2(O)[C@@H]3Cc4ccc(O)c5c4[C@]2(CCN3CC2CC2)[C@@H]1O5 (stereo partly shown) [II-71] | 0.19 ± 0.01 | 0.10 ± 0.00 | 87 | 93 |  |
| COc1ccc2c3c1O[C@@H]1[C@@H]4CCC5(O4)[C@H](C2)N(CC2CC2)CC[C@@]315 [II-72] | 1.10 ± 0.02 | 0.49 ± 0.01 | 22 | 65 |  |
| O=C1CC[C@]2(O)[C@@H]3Cc4ccc(O)c5c4[C@]2(CCN3CC2CC2)[C@@H]1O5 [II-73] | 1.35 ± 0.13 | 0.96 ± 0.08 | 5 | 32 |  |
| CC(=O)NC1CC[C@]2(O)[C@@H]3Cc4ccc(O)c5c4[C@]2(CCN3CC2CC2)[C@@H]1O5 (stereo partly shown) [II-75] | 1.08 ± 0.02 | 0.91 ± 0.11 | 24 | 36 |  |
